System: Mus musculus
Assay: In vivo anti-hyperglycaemic activity in mice.
Type: functional

Row | Structure (SMILES) | ED25 [µM/kg]
1 | CN(CCOc1ccc(CC(C/C=C/c2ccccc2)C(=O)O)cc1)c1nc2ccccc2o1 (centres undefined) | 30
2 | CN(CCOc1ccc(CC(CCCCCc2ccccc2)C(=O)O)cc1)c1nc2ccccc2o1 (centres undefined) | 3
3 | CN(CCOc1ccc(CC(C(=O)O)c2ccccc2)cc1)c1nc2ccccc2o1 (centres undefined) | 30
4 | CCC(Cc1ccc(OCCN(C)c2nc3ccccc3o2)cc1)C(=O)O (centres undefined) | 30
5 | CC(Cc1ccc(OCCN(C)c2nc3ccccc3o2)cc1)C(=O)O (centres undefined) | 1000
6 | CN(CCOc1ccc(CC(CCCc2ccccc2)C(=O)O)cc1)c1nc2ccccc2o1 (centres undefined) | 3
7 | CN(CCOc1ccc(CC(C#N)C(=O)O)cc1)c1nc2ccccc2o1 (centres undefined) | 10
8 | CCOC(Cc1ccc(OCCN(C)c2nc3ccccc3o2)cc1)C(=O)O (centres undefined) | 0.1
9 | CCOC(=O)C(Cc1ccc(OCCN(C)c2nc3ccccc3o2)cc1)C(=O)c1ccccc1 (centres undefined) | >1000
10 | C=CCC(Cc1ccc(OCCN(C)c2nc3ccccc3o2)cc1)C(=O)O (centres undefined) | 30
11 | CC(C)CCC(Cc1ccc(OCCN(C)c2nc3ccccc3o2)cc1)C(=O)O (centres undefined) | 100
12 | CCCCCCC(Cc1ccc(OCCN(C)c2nc3ccccc3o2)cc1)C(=O)O (centres undefined) | 10
13 | COC(=O)C(Cc1ccc(OCCN(C)c2nc3ccccc3o2)cc1)C(=O)OC | 10
14 | COC(=O)C(CCc1ccccc1)Cc1ccc(OCCN(C)c2nc3ccccc3o2)cc1 (centres undefined) | 100
15 | CCCC(Cc1ccc(OCCN(C)c2nc3ccccc3o2)cc1)C(=O)O (centres undefined) | 10
16 | COCC(Cc1ccc(OCCN(C)c2nc3ccccc3o2)cc1)C(=O)O (centres undefined) | 30
17 | CN(CCOc1ccc(CC(CCCCc2ccccc2)C(=O)O)cc1)c1nc2ccccc2o1 (centres undefined) | 100
18 | CN(CCOc1ccc(CC(CCOc2ccccc2)C(=O)O)cc1)c1nc2ccccc2o1 (centres undefined) | 30
19 | COC(=O)C(Cc1ccc(OCCN(C)c2nc3ccccc3o2)cc1)C(C)=O (centres undefined) | 300
20 | COC(=O)C(Cc1ccccc1)Cc1ccc(OCCN(C)c2nc3ccccc3o2)cc1 (centres undefined) | 300
21 | CN(CCOc1ccc(CC2SC(=O)NC2=O)cc1)c1nc2ccccc2o1 (centres undefined) [BRL-48482] | 3
22 | Cc1c(C)c2c(c(C)c1O)CCC(C)(COc1ccc(CC3SC(=O)NC3=O)cc1)O2 (centres undefined) [TROGLITAZONE] | 400

Molecular target: T1, Peroxisome proliferator-activated receptor gamma (Homo sapiens, UniProt P37231)
T1 sequence (P37231 whole entry): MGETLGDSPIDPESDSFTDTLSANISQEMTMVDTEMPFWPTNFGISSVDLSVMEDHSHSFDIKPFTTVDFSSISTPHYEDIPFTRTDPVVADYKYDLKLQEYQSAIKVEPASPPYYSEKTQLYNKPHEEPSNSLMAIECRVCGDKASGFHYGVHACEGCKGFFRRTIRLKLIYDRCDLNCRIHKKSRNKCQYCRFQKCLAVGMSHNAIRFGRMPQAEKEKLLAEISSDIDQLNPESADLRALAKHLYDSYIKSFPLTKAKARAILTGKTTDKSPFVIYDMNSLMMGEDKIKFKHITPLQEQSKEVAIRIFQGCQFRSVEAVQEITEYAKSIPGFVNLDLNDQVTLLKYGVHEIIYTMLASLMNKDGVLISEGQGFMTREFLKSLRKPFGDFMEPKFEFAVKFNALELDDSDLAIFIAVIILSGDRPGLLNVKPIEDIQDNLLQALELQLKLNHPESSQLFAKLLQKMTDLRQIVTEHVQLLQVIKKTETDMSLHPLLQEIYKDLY
Assay: Inhibition of [125I]SB 236636 binding to human PPAR gamma receptor

Row | Structure (SMILES) | Ki [nM]
23 | CC(Cc1ccc(OCCN(C)c2nc3ccccc3o2)cc1)C(=O)O (centres undefined) | 1500

Molecular target: T1, Peroxisome proliferator-activated receptor gamma

Row | Structure (SMILES) | Ki [nM]
24 | CN(CCOc1ccc(CC(CCCc2ccccc2)C(=O)O)cc1)c1nc2ccccc2o1 (centres undefined) | 30

— ChEMBL document CHEMBL1129160, “Non thiazolidinedione antihyperglycaemic agents. 2: -Carbon substituted -phenylpropanoic acids1” (Bioorg Med Chem Lett, 1996)
